Patent publication US9708278B2, “Substituted 4-benzyl-3,4-dihydro-2H-benzo[B][1,4]oxazine-2-carboxamide analogs as positive allosteric modulators of muscarinic acetycholine receptor M1” (Vanderbilt University, priority 2013, dated 2017)

Target: T1, mAChR M1 (UniProt P08482)
T1 sequence (P08482 1-460): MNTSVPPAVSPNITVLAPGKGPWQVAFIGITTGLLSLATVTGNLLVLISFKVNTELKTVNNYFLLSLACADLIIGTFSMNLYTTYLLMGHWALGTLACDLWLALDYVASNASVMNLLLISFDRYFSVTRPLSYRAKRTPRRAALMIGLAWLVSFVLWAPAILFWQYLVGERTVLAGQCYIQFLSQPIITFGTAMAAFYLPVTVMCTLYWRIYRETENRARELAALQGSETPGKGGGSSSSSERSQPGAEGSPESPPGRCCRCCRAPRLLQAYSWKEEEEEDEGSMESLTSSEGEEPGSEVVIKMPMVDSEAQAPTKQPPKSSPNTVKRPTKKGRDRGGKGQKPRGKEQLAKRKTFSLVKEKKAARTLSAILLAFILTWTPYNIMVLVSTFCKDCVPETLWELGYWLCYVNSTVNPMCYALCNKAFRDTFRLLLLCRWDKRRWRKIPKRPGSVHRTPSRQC
Assay: mAChR M1 cell-based functional assay (calcium mobilization, PAM mode)
Conditions: positive allosteric modulator activity: concentration-dependent increase in the EC20 acetylcholine response; calcium flux in CHO-K1 cells stably expressing mAChR M1
Source text: The calcium mobilization assay was also used to determine “efficacy”.
N-Substituted 3,4-dihydro-benzo[b][1,4]oxazine-2-carboxamide analogs were synthesized as described above. […] The compound number corresponds to the compound numbers used in Table I.

| SMILES | EC50 |
| --- | --- |
| O=C(Nc1ccccc1F)C1CN(Cc2ccc(-n3cccn3)cc2)c2ccccc2O1 (stereo not drawn) [Compound B55] | ≥ 10 µM |

Same assay, conditions: positive allosteric modulator activity: concentration-dependent increase in the EC20 acetylcholine response; calcium flux in CHO-K1 cells stably expressing mAChR M1; read-out: EC50

| EC50 | SMILES |
| --- | --- |
| ≥ 10 µM | O=C(NC1CCCC1)C1CN(Cc2ccc(-n3cccn3)cc2)c2ccccc2O1 (stereo not drawn) [Compound B28] |
| > 30 µM | Cc1ccc(NC(=O)C2CN(Cc3ccc(-n4cccn4)cc3)c3ccccc3O2)c(O)c1 (stereo not drawn) [Compound B53] |
| 3.8 µM | CC(C)(O)CNC(=O)C1CN(Cc2ccc(-n3cccn3)cc2)c2ccccc2O1 (stereo not drawn) [Compound B36] |
| ≥ 10 µM | O=C(Nc1ccccn1)C1CN(Cc2ccc(-n3cccn3)cc2)c2ccccc2O1 (stereo not drawn) [Compound B15] |
| 2.57 µM | O=C(Nc1ncccc1F)C1CN(Cc2ccc(-n3cccn3)cc2)c2ccccc2O1 (stereo not drawn) [Compound B50] |
| ≥ 10 µM | O=C(NC1CCOC1)C1CN(Cc2ccc(-n3cccn3)cc2)c2ccccc2O1 (stereo not drawn) [Compound B23] |
| ≥ 10 µM | O=C(N[C@@H](CO)[C@H](O)c1ccccc1)C1CN(Cc2ccc(-n3cccn3)cc2)c2ccccc2O1 (stereo partly drawn) [Compound B44] |
| > 30 µM | O=C(Nc1ccn[nH]1)C1CN(Cc2ccc(-n3cccn3)cc2)c2ccccc2O1 (stereo not drawn) [Compound B47] |
| 6.54 µM | O=C(NCCO)C1CN(Cc2ccc(-n3cccn3)cc2)c2ccccc2O1 (stereo not drawn) [Compound B33] |
| 3.56 µM | CC(C)CNC(=O)C1CN(Cc2ccc(-n3cccn3)cc2)c2ccccc2O1 (stereo not drawn) [Compound B11] |
| ≥ 10 µM | O=C(NCC(F)F)C1CN(Cc2ccc(-n3cccn3)cc2)c2ccccc2O1 (stereo not drawn) [Compound B52] |
| ≥ 10 µM | COc1ccc(CN2C[C@@H](C(=O)N[C@H]3CCCC[C@@H]3O)Oc3ccccc32)cc1 (single isomer, unassigned) [Compound B10] |
| > 30 µM | CC1(NC(=O)C2CN(Cc3ccc(-n4cccn4)cc3)c3ccccc3O2)COC1 (stereo not drawn) [Compound B34] |
| 7.65 µM | COCCNC(=O)C1CN(Cc2ccc(-n3cccn3)cc2)c2ccccc2O1 (stereo not drawn) [Compound B51] |
| 3.6 µM | O=C(N[C@H]1CCCC[C@@H]1O)C1CN(Cc2ccc(C(F)(F)F)nc2)c2cccc(F)c2O1 (stereo partly drawn) [Compound B57, 8-fluoro-N-((1S,2S)-2-hydroxycyclohexyl)-4-((6-(trifluoromethyl)pyridin-3-yl)methyl)-3,4-dihydro-2H-benzo[b][1,4]oxazine-2-carboxamide] |
| ≥ 10 µM | O=C(Nc1ncc(F)cc1F)C1CN(Cc2ccc(-n3cccn3)cc2)c2ccccc2O1 (stereo not drawn) [Compound B49] |
| > 30 µM | O=C(NCC(F)(F)F)C1CN(Cc2ccc(-n3cccn3)cc2)c2ccccc2O1 (stereo not drawn) [Compound B26] |
| 2.28 µM | O=C(NCC(O)C(F)(F)F)C1CN(Cc2ccc(-n3cccn3)cc2)c2ccccc2O1 (stereo not drawn) [Compound B46] |
| ≥ 10 µM | O=C(NC1CCCCC1)C1CN(Cc2ccc(-n3cccn3)cc2)c2ccccc2O1 (stereo not drawn) [Compound B18] |

| EC50 | SMILES |
| --- | --- |
| > 30 µM | Cn1cc(-c2ccc(CN3CC(C(=O)N[C@H]4CCCC[C@@H]4O)Oc4ccccc43)cc2)cn1 (stereo partly drawn) [Compound B7] |
| 0.302 µM | O=C(N[C@H]1CCCC[C@@H]1O)C1CN(Cc2ccc(-n3cccn3)cc2)c2ccccc2O1 (stereo partly drawn) [Compound B1, 4-(4-(1H-pyrazol-1-yl)benzyl)-N-((1S,2S)-2-hydroxycyclohexyl)-3,4-dihydro-2H-benzo[b][1,4]oxazine-2-carboxamide] |
| > 30 µM | COc1ccc(OCCNC(=O)C2CN(Cc3ccc(-n4cccn4)cc3)c3ccccc3O2)cc1 (stereo not drawn) [Compound B25] |
| 3.3 µM | NC(=O)C1CN(Cc2ccc(-n3cccn3)cc2)c2ccccc2O1 (stereo not drawn) [Compound B32] |
| 7.38 µM | O=C(Nc1cccc2cn[nH]c12)C1CN(Cc2ccc(-n3cccn3)cc2)c2ccccc2O1 (stereo not drawn) [Compound B45] |
| 4.43 µM | O=C(NC1CCOCC1)C1CN(Cc2ccc(-n3cccn3)cc2)c2ccccc2O1 (stereo not drawn) [Compound B30] |
| 7.66 µM | O=C(NC1CCC1)C1CN(Cc2ccc(-n3cccn3)cc2)c2ccccc2O1 (stereo not drawn) [Compound B27] |
| 4.82 µM | O=C(NCc1ccccn1)C1CN(Cc2ccc(-n3cccn3)cc2)c2ccccc2O1 (stereo not drawn) [Compound B12] |
| ≥ 10 µM | Cc1ccccc1NC(=O)C1CN(Cc2ccc(-n3cccn3)cc2)c2ccccc2O1 (stereo not drawn) [Compound B56] |
| ≥ 10 µM | COc1ccc(CN2CC(C(=O)N[C@H]3CCCC[C@@H]3O)Oc3ccccc32)cc1 (stereo partly drawn) [Compound B5] |
| ≥ 10 µM | O=C(Nc1ccccc1O)C1CN(Cc2ccc(-n3cccn3)cc2)c2ccccc2O1 (stereo not drawn) [Compound B14] |
| > 30 µM | O=C(NCCOc1ccc(F)cc1)C1CN(Cc2ccc(-n3cccn3)cc2)c2ccccc2O1 (stereo not drawn) [Compound B40] |
| ≥ 10 µM | O=C(NC1COC1)C1CN(Cc2ccc(-n3cccn3)cc2)c2ccccc2O1 (stereo not drawn) [Compound B3] |
| 3.69 µM | CC(C)C[C@@H](CO)NC(=O)[C@@H]1CN(Cc2ccc(-n3cccn3)cc2)c2ccccc2O1 (single isomer, unassigned) [Compound B19] |
| > 30 µM | COc1ccccc1OCCNC(=O)C1CN(Cc2ccc(-n3cccn3)cc2)c2ccccc2O1 (stereo not drawn) [Compound B39] |
| ≥ 10 µM | O=C(NC1CC1)C1CN(Cc2ccc(-n3cccn3)cc2)c2ccccc2O1 (stereo not drawn) [Compound B17] |
| > 30 µM | O=C(NCCOc1ccccc1F)C1CN(Cc2ccc(-n3cccn3)cc2)c2ccccc2O1 (stereo not drawn) [Compound B38] |
| 0.573 µM | O=C(N[C@H]1CCCC[C@@H]1O)C1CN(Cc2ccc(-n3cccn3)cc2)c2ccccc2O1 (single isomer, unassigned) [Compound B29] |
| 2.07 µM | CC(C)C[C@@H](CO)NC(=O)[C@H]1CN(Cc2ccc(-n3cccn3)cc2)c2ccccc2O1 (single isomer, unassigned) [Compound B20] |

| EC50 | SMILES |
| --- | --- |
| 4.21 µM | O=C(N[C@H]1CCCC[C@@H]1O)C1CN(Cc2ccc(Cl)nc2)c2ccccc2O1 (stereo partly drawn) [Compound B8] |
| > 30 µM | O=C(Nc1ccccc1)C1CN(Cc2ccc(-n3cccn3)cc2)c2ccccc2O1 (stereo not drawn) [Compound B31] |
| 1.44 µM | COC(=O)CNC(=O)C1CN(Cc2ccc(-n3cccn3)cc2)c2ccccc2O1 (stereo not drawn) [Compound B13] |
| ≥ 10 µM | O=C(NC1CCCOC1)C1CN(Cc2ccc(-n3cccn3)cc2)c2ccccc2O1 (stereo not drawn) [Compound B37] |
| > 30 µM | O=C(N[C@H]1CCCC[C@@H]1O)C1CN(Cc2c(F)cc(Br)cc2F)c2ccccc2O1 (stereo partly drawn) [Compound B4, 4-(4-bromo-2,6-difluorobenzyl)-N-((1S,2S)-2-hydroxycyclohexyl)-3,4-dihydro-2H-benzo[b][1,4]oxazine-2-carboxamide] |
| 1.15 µM | O=C(N[C@H]1CCC[C@@H]1O)C1CN(Cc2ccc(-n3cccn3)cc2)c2ccccc2O1 (stereo partly drawn) [Compound B54] |
| ≥ 10 µM | CC(C)NC(=O)C1CN(Cc2ccc(-n3cccn3)cc2)c2ccccc2O1 (stereo not drawn) [Compound B22] |
| 4.66 µM | C[C@@H](CO)NC(=O)C1CN(Cc2ccc(-n3cccn3)cc2)c2ccccc2O1 (stereo partly drawn) [Compound B35] |
| 2.4 µM | COc1cccnc1NC(=O)C1CN(Cc2ccc(-n3cccn3)cc2)c2ccccc2O1 (stereo not drawn) [Compound B48] |
| 4.7 µM | O=C(N[C@H]1CCCC[C@@H]1O)C1CN(Cc2ccc(C(F)(F)F)nc2)c2ccccc2O1 (stereo partly drawn) [Compound B42] |
| 7.75 µM | COc1ccc(CN2C[C@H](C(=O)N[C@H]3CCCC[C@@H]3O)Oc3ccccc32)cc1 (single isomer, unassigned) [Compound B9] |
| ≥ 10 µM | O=C(NCCCN1CCOCC1)C1CN(Cc2ccc(-n3cccn3)cc2)c2ccccc2O1 (stereo not drawn) [Compound B24] |
| 0.543 µM | O=C(Nc1ncccc1O)C1CN(Cc2ccc(-n3cccn3)cc2)c2ccccc2O1 (stereo not drawn) [Compound B2, 4-(4-(1H-pyrazol-1-yl)benzyl)-N-(3-hydroxypyridin-2-yl)-3,4-dihydro-2H-benzo[b][1,4]oxazine-2-carboxamide] |
| 5.36 µM | CNC(=O)C1CN(Cc2ccc(-n3cccn3)cc2)c2ccccc2O1 (stereo not drawn) [Compound B21] |
| ≥ 10 µM | Cn1cc2c(-c3cc(F)c(CN4CC(C(=O)N[C@H]5CCCC[C@@H]5O)Oc5ccccc54)c(F)c3)cccc2n1 (stereo partly drawn) [Compound B6, 4-(2,6-difluoro-4-(2-methyl-2H-indazol-4-yl)benzyl)-N-((1S,2S)-2-hydroxycyclohexyl)-3,4-dihydro-2H-benzo[b][1,4]oxazine-2-carboxamide] |
| > 30 µM | CC(C)(CO)NC(=O)C1CN(Cc2ccc(-n3cccn3)cc2)c2ccccc2O1 (stereo not drawn) [Compound B16] |
| ≥ 10 µM | COCC(C)NC(=O)C1CN(Cc2ccc(-n3cccn3)cc2)c2ccccc2O1 (stereo not drawn) [Compound B43] |
| 0.199 µM | O=C(N[C@H]1CCCC[C@@H]1O)C1CN(Cc2ccc(-n3cccn3)cc2)c2ccccc2O1 (single isomer, unassigned) [Compound B41] |
